Results as given in patent publication US20260232629A1, “Covalent Degraders of Oncogenic Transcription Factors” (The Regents of the University of California, priority 2023, published 2026).

Legend:
[1] = biological target: T1, pure human CTNNB1 protein (Homo sapiens, UniProt P35222); experiment: Gel-based ABPP with CTNNB1 pure protein (IA-Rhodamine displacement); format: binding; conditions: displacement of cysteine-reactive fluorescent probe
T1 sequence (P35222 1-781): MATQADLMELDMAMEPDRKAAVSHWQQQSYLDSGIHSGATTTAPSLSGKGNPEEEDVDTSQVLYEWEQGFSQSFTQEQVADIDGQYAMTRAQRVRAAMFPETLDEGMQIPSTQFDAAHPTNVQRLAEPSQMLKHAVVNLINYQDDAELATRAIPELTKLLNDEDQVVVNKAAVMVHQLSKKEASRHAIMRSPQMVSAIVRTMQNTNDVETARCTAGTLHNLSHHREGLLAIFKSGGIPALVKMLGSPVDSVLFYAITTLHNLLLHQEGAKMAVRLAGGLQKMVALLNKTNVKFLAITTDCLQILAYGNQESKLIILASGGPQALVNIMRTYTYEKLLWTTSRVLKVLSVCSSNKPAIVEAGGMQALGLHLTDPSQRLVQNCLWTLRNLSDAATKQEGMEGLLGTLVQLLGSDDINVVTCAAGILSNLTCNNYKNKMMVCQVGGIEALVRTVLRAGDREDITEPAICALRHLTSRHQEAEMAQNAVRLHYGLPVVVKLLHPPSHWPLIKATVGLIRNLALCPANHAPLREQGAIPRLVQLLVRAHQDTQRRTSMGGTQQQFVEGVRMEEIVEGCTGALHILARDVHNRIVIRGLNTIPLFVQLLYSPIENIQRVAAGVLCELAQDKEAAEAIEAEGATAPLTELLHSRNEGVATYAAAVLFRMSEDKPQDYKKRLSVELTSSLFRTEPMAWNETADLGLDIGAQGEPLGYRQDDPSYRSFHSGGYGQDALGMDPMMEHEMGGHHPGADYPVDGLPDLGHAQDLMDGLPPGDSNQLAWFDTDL
Protocol: CTNNB1 pure protein (0.1 μg/25 μL in PBS) was treated with either DMSO vehicle or covalent ligand at 37° C. for 30 min, and subsequently treated with 0.1 μM IA-Rhodamine (Setareh Biotech) for 1 h at RT in the dark. The reaction was stopped by addition of 4×reducing Laemmli SDS sample loading buffer (Alfa Aesar). After boiling at 95° C. for 5 min, the samples were separated on precast 4-20% Criterion TGX gels (Bio-Rad) and were analyzed by in-gel fluorescence using a ChemiDoc MP (Bio-Rad).

[2] = tested on: FLAG-tagged wild-type, C439S, C466S, C520S, or C619S mutant CTNNB1; experiment: Degradation of FLAG-tagged wild-type or cysteine-to-serine mutant CTNNB1 in cells; format: cell-based; conditions: FLAG-tagged CTNNB1 wild-type vs C439S
Text: We next sought to confirm the contributions of the cysteines targeted by EN83 in CTNNB1 to CTNNB1 degradation.

[3] = biological target: T2, proteome-wide cysteine-reactivity (C619 on CTNNB1) (Homo sapiens, UniProt P35222); experiment: isoDTB-ABPP, proteome-wide cysteine-reactivity in cells; format: cell-based
T2 construct: endogenous in cells
T2 sequence (P35222 1-781): T1 sequence (P35222 1-781)
Text: We next wanted to confirm that EN83 engages CTNNB1 in cells. […] We next performed a mass spectrometry-based ABPP or isodesthiobiotin-ABPP (isoDTB-ABPP) to map overall proteome-wide cysteine-reactivity of EN83 in cells using previously established methods. […] Among the off-targets of EN83, none of the targets were within the Wnt signaling pathway, including AXIN1, BTRC, or GSK3A or GSK3B.

CTNNB1 [4] = biological target: T3, CTNNB1 (Homo sapiens, UniProt P35222); experiment: Cellular thermal shift assay; format: cell-based; conditions: cellular treatment
T3 construct: endogenous in cells; host or cells: HEK293T, HT29, COLO-201, SW480
T3 sequence (P35222 1-781): T1 sequence (P35222 1-781)

[5] = biological target: T4, CTNNB1 with a N-terminal HiBiT tag (Homo sapiens, UniProt P35222); experiment: CTNNB1 HiBiT cell line assay (Nano-Glo HiBiT lytic detection); format: cell-based; conditions: HEK293 cells expressing endogenous N-terminal HiBiT-tagged CTNNB1
T4 construct: N-terminal HiBiT tag incorporated into the endogenous loci of CTNNB1; host or cells: HEK293 (CTNNB1 HiBiT knock-in line)
T4 sequence (P35222 1-781): T1 sequence (P35222 1-781)
Protocol: To identify a covalent degrader of CTNNB1, we screened a library of 2100 cysteine-reactive covalent ligands consisting of acrylamides and chloroacetamides in HEK293 cells expressing CTNNB1 with a N-terminal HiBiT tag incorporated into the endogenous loci of CTNNB1. We identified 17 hits lowered CTNNB1 levels.
Covalent ligand screen and dose responses were conducted using Promega Nano-Glo HiBiT Lytic Detection System (N3040) and CellTiter-Glo 2.0 Assay (G9242). HiBiT cells were seeded into 96-well plates (Corning 3917) at 35,000 cells per 100 μL of media and were left overnight to adhere. Cells were treated with 25 μL of media containing 1:125 dilution from a 1000×DMSO compound stock and treated for either 6 hrs, 12 hrs, or 24 hrs. […] 125 μL of CTG or Lytic detection system reagents were added to each well. To assess the cells in the supernatant, half of the plates had the media removed prior to the addition of CTG or lytic detection system reagents. Plates were rocked for 15 minutes prior to their luminescence readout on the Tecan Spark Plate reader (30086376).

CTNNB1 [6] = biological target: T3, CTNNB1; experiment: Western blotting of CTNNB1 in cells; format: cell-based; conditions: proteasome dependence
Protocol: Pelleted cells are lysed with CST buffer containing protease inhibitor cocktail (Pierce A32955). Samples were centrifuged at 20,000 g for 20 min at 4° C. to remove cell debris. Samples' protein content was normalized to run 30 μg per well. Samples were then boiled for 8 min at 90° C. after addition of 4×reducing Laemmli SDS sample loading buffer (Alfa Aesar) and ran on precast 4-20% Criterion TGX gels (Bio-Rad).
Antibodies to CTNNB1 (Cell Signaling Technology, 8814S), GAPDH (Proteintech Group Inc., 60004-1-Ig or Cell Signaling Technology, 14C10), and DDDDK tag (Abcam, ab205606) were diluted per recommended manufacturers' procedures. Proteins were resolved by SDS/PAGE and transferred to nitrocellulose membranes using the BioRad system (1704271 and 1704150). Blots were blocked with 5% BSA in Tris-buffered saline containing Tween 20 (TBST) solution for 1 hour at room temperature, washed in TBST, and probed with primary antibody diluted in recommended diluent per manufacturer overnight at 4° C. Following washes with TBST, the blots were incubated in the dark with secondary antibodies purchased from Ly-Cor and used at 1:10,000 dilution in 5% BSA in TBST at room temperature. Blots were visualized using an Odyssey Li-Cor scanner after additional washes. If additional primary antibody incubations were required the membrane was stripped using ReBlot Plus Strong Antibody Stripping Solution (EMD Millipore, 2504), washed and blocked again before being reincubated with primary antibody.

CTNNB1 pure protein = biological target: T5, CTNNB1 pure protein (Homo sapiens, UniProt P35222); experiment: NF686 probe labeling on CTNNB1 pure protein; format: binding; conditions: alkyne probe, click to fluorescent azide, in-gel fluorescence
T5 sequence (P35222 1-781): T1 sequence (P35222 1-781)
Protocol: CTNNB1 pure protein (0.2 μg/50 μL in PBS) was treated with either DMSO vehicle or NF686 at 37° C. for 30 min. Click reagents Azide-Fluor 545 (Click Chemistry Tools, Inc. AZ109-5), Copper (II) Sulfate, and TBTA (TCI Chemicals, T2993) were added to have a final concentration of 21.8 μM, 873.4 μM, and 47.2 μg/mL, respectively, for 1 hr at RT in the dark. The reaction was stopped by addition of 4×reducing Laemmli SDS sample loading buffer (Alfa Aesar). After boiling samples at 95° C. for 5 min, the samples were separated on precast 4-20% Criterion TGX gels (Bio-Rad). Probe-labeled proteins were analyzed by in-gel fluorescence using a ChemiDoc MP (Bio-Rad).

CTNNB1 [7] = biological target: T3, CTNNB1; experiment: Alkyne probe enrichment of CTNNB1 from cells; format: cell-based; conditions: in cells; GAPDH as unrelated target

Row | SMILES | CTNNB1 protein levels by Western blotting (CTNNB1 [6]) | binding to CTNNB1 by gel-based ABPP [1] | CTNNB1 HiBiT levels [5] | further results
1 | COc1ccc(OC)c(C2CCCN2C(=O)CCl)c1 (racemic) [EN83] | – | dose-responsively displaced cysteine-reactive fluorescent probe labeling of pure human CTNNB1 protein | dose-responsive CTNNB1 loss that was significantly attenuated by proteasome or NEDDylation inhibition | effect of cysteine mutation on CTNNB1 degradation [2]: mutation of C466, C520, or C619, but not C439, to serines significantly attenuated CTNNB1 degradation in cells; number of other targets significantly engaged by over 50% ([3]; among 8251 cysteines detected and quantified, three biological replicates): 139; proteome-wide selectivity ([3]; isoDTB-ABPP in cells): only moderately selective; engagement of CTNNB1 cysteine in cells ([3]; isoDTB-ABPP, three biological replicates): significantly engaged C619 on CTNNB1; thermal stability of CTNNB1 in cells (CTNNB1 [4]): significant thermal destabilization of CTNNB1 in cells
2 | C#CCCCNC(=O)c1ccc(OC)c([C@@H]2CCCN2C(=O)CCl)c1 [NF686, (S)-3-(1-(2-chloroacetyl)pyrrolidin-2-yl)-4-methoxy-N-(pent-4-yn-1-yl)benzamide] | – | – | – | direct probe labeling of pure CTNNB1 protein (CTNNB1 pure protein): direct covalent dose-responsive probe labeling of pure CTNNB1 protein; enrichment of CTNNB1 from cells with alkyne probe (CTNNB1 [7]): CTNNB1 could be enriched from cells with the probes without enriching unrelated targets such as GAPDH
3 | COc1ccc(C(F)(F)F)c(C2CCCN2C(=O)/C=C/C(=O)c2ccccc2)c1 (stereo not drawn) [NF764, (E)-1-(2-(5-methoxy-2-(trifluoromethyl)phenyl)pyrrolidin-1-yl)-4-phenylbut-2-ene-1,4-dione] | lowered CTNNB1 protein levels in cells in a proteasome-dependent manner | improved CTNNB1 binding | more potent loss of CTNNB1 HiBiT levels | –
4 | COc1ccc(C(F)(F)F)cc1C1CCCN1C(=O)/C=C/C(=O)c1ccccc1 (stereo not drawn) [NF765, (E)-1-(2-(2-methoxy-5-(trifluoromethyl)phenyl)pyrrolidin-1-yl)-4-phenylbut-2-ene-1,4-dione] | lowered CTNNB1 protein levels in cells in a proteasome-dependent manner | improved CTNNB1 binding | more potent loss of CTNNB1 HiBiT levels | –

More lines, main results first:

Row | CTNNB1 protein levels by Western blotting (CTNNB1 [6]) | SMILES | binding to CTNNB1 by gel-based ABPP [1] | CTNNB1 HiBiT levels [5] | further results
5 | does not alter CTNNB1 levels | CCC(=O)N1CCCC1c1cc(OC)ccc1OC (stereo not drawn) [NF602, 1-(2-(2,5-dimethoxyphenyl)pyrrolidin-1-yl)propan-1-one] | does not show binding to CTNNB1 | does not alter CTNNB1 levels | –
6 | confirmed to be proteasome-dependent | COc1ccc(C(F)(F)F)cc1C1CCCN1C(=O)CCl (stereo not drawn) [NF740, 2-chloro-1-(2-(2-methoxy-5-(trifluoromethyl)phenyl)pyrrolidin-1-yl)ethan-1-one] | tolerated | lowering CTNNB1 HiBiT levels in HEK293 cells in a dose-responsive manner | –
7 | confirmed to be proteasome-dependent | COc1ccc(C(F)(F)F)c(C2CCCN2C(=O)CCl)c1 (stereo not drawn) [NF741, 2-chloro-1-(2-(5-methoxy-2-(trifluoromethyl)phenyl)pyrrolidin-1-yl)ethan-1-one] | tolerated | lowering CTNNB1 HiBiT levels in HEK293 cells in a dose-responsive manner | –
